The assay deals with Type-1 angiotensin II receptor (Homo sapiens) (UniProt P30556). The assay can be described thus: AGTR1 activation selectivity check – cell-based, CHO-K1 PathHunter, luminescence, set 4, selectivity assay for APJ agonist project, SAR follow-up (AID 493202). The conditions noted are these: CHO-K1 AGTR1 PathHunter beta-arrestin, 90 min.

The structures appear in SMILES notation. Active and inactive are the calls of the source.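 The calls were made as follows: active = mean EC50 below 10 µM; inactive = the rest.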

Type-1 angiotensin II receptor (Homo sapiens), sequence (P30556 whole entry, looked up): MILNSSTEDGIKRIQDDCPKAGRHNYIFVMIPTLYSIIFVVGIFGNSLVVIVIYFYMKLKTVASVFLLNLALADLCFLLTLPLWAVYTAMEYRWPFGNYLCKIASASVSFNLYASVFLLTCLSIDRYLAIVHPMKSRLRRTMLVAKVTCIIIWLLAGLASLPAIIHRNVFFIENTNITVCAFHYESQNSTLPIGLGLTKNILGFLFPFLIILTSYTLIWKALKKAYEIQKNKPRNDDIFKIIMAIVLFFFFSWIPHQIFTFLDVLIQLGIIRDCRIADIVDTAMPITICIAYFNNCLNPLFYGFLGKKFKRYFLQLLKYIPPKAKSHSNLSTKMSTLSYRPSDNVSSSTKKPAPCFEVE

The EC50 is the midpoint of the concentration-response curve. In the case of `COC(=O)c1cc(NS(=O)(=O)c2ccccc2)ccc1O`, the EC50 is > 79 µM (inactive).

Take `CC1=CC(=O)C(C(C)C)=C/C1=N/OS(=O)(=O)c1ccc(C(C)(C)C)cc1`: the EC50 was > 79 µM (inactive).

For `CC1=CC(=O)C(C(C)C)=C/C1=N/OS(=O)(=O)c1ccc(C(F)(F)F)cc1`, the EC50 is > 79 µM (inactive).

In the case of `CC1=CC(=O)C(C(C)C)=C/C1=N/OS(=O)(=O)c1cccnc1`, the EC50 was > 79 µM (inactive).

On to `Cc1cc(O)c(C(C)C)cc1NS(=O)(=O)c1ccccc1`, for which the EC50 is > 79 µM (inactive).

Consider `CC1=CC(=O)C(C(C)C)=C/C1=N/OS(=O)(=O)c1ccc(OC(F)(F)F)cc1`, for which the EC50 is > 79 µM (inactive).

For the compound `O=S(=O)(Nc1cc(Cl)c(O)c(Cl)c1)c1ccccc1`, the EC50 is > 79 µM (inactive).

The values are drawn from PubChem BioAssay AID493202 (Sanford-Burnham Center for Chemical Genomics, 2011).
